As a reminder, the melting point is the temperature of the solid-liquid transition.

Molecules are shown by their SMILES. Counter-ions that a name gives are not always drawn.

With `Cc1n[nH]c(Sc2c(Cc3ccccc3C(F)(F)F)sc3c2c(=O)n(C)c(=O)n3CC(C)C)n1` (as salt: hydrochloride) [Example 30, 3-Methyl-1-(2-methylpropyl)-5-[(5-methyl-1H-1,2,4-triazol-3yl)thiol-6-[[2-(trifluoromethyl)phenyl]methyl]-thieno[2,3-d]pyrimidine-2,4(1H,3H)-dione dihydrochloride], the melting point is 154 °C. `CC(C)Cn1c(=O)n(C)c(=O)c2c(Sc3nc[nH]n3)c(Cc3ccccc3C(F)(F)F)sc21` [Example 13, 3-Methyl-1-(2-methylpropyl)-5-(1H-1,2,4-triazol-3-ylthio)-6-[[2-(trifluoromethyl)phenyl]methyl]-thieno[2,3-d]pyrimidine-2,4(1H,3H)-dione] registered a melting point of 186 to 187 °C.

For `Cc1nc(Sc2c(C(=O)c3ccccc3C(F)(F)F)sc3c2c(=O)n(C)c(=O)n3CC(C)C)n[nH]1` [Example 18], the melting point was in the range of 220 to 222 °C. Under `CC(C)Cn1c(=O)n(C)c(=O)c2c(Sc3ncc[nH]3)c(C(=O)c3ccccc3C(F)(F)F)sc21` [Example 22, 5-(1H-Imidazol-2-ylthio)-3-methyl-1-(2-methylpropyl)-6-[2-(trifluoromethyl)bezoyl]-thieno[2,3-d]pyrimidine-2,4(1H,3H)-dione] stands 123 to 127 °C; under `CC(C)Cn1c(=O)n(C)c(=O)c2c(Sc3nccs3)c(Cc3ccccc3C(F)(F)F)sc21` [Example 29, 3-Methyl-1-(2-methylpropyl)-5-(2-thiazolylthio)-6-[[2-(trifluoromethyl)-phenyl]methyl]-thieno[2,3-d]pyrimidine-2,4(1H,3H)-dione], 141 to 144 °C. The value for `CC(C)Cn1c(=O)n(C)c(=O)c2c(Sc3ncc[nH]3)c(Cc3ccccc3C(F)(F)F)sc21` [Example 31, 5-(1H-Imidazol-2-ylthio)-3-methyl-1-(2-methylpropyl)-6-[[2-(trifluoromethyl)phenyl]methyl]-thieno[2,3-d]pyrimidine-2,4(1H,3H)-dione] was 221 to 225 °C.

In turn, `CC(C)Cn1c(=O)n(C)c(=O)c2c(Sc3nncs3)c(Cc3ccccc3C(F)(F)F)sc21` [Example 32, 3-Methyl-1-(2-methylpropyl)-5-(1,3,4-thiadiazol-2-ylthio)-6-[2-(trifluoromethyl)benzyl]-thieno[2,3-d]pyrimidine-2,4(1H,3H)dione] showed a melting point of 169 to 170 °C. The value for `CC(C)Cn1c(=O)n(C)c(=O)c2c(Sc3nnc(N)s3)c(Cc3ccccc3C(F)(F)F)sc21` [Example 33, 5-[(5-Amino-1,3,4-thiadiazol-2-yl)thio]-3-methyl-1-(2-methylpropyl)-6-[2-(trifluoromethyl)benzyl]-thieno[2,3-d]pyrimidine-2,4(1H,3H)-dione] was 236 to 237 °C; that for `CC(C)Cn1c(=O)n(C)c(=O)c2c(S(=O)(=O)c3nc[nH]n3)c(C(O)c3ccccc3C(F)(F)F)sc21` (centres unmarked) [Example 37, 6-[Hydroxy[2-(trifluoromethyl)phenyl]methyl]-3-methyl-1-(2-methylpropyl)-5-(1H-1,2,4-triazol-3-ylsulfonyl)-thieno[2,3-d]pyrimidine-2,4(1H,3H)-dione] was 198 to 202 °C. Under `CC(C)Cn1c(=O)n(C)c(=O)c2c(S(=O)(=O)c3nncs3)c(Cc3ccccc3C(F)(F)F)sc21` [Example 39, 3-Methyl-1-(2-methylpropl)-5-(1,3,4-thiadiazol-2-ylsulfonyl)-6-[2-(trifluoromethyl)benzyl]-thieno[2,3-d]pyrimidine-2,4(1H,3H)-dione] stands 148 to 149 °C.

`CC(C)Cn1c(=O)n(C)c(=O)c2c(Sc3nc(Br)n[nH]3)c(Cc3ccccc3C(F)(F)F)sc21` [Example 40] had a melting point of 174 to 175 °C. The value for `CC(C)Cn1c(=O)n(C)c(=O)c2c(Sc3n[nH]c(=O)[nH]3)c(Cc3ccccc3C(F)(F)F)sc21` [Example 41, 3-Methyl-1-(2-methylpropyl)-5-[(5-oxo-4,5-dilydro-1H-1,2,4-triazol-3-yl)thio]-6-[2-(trifluoromethyl)phenylmethyl]-thieno[2,3-d]pyrimidine-2,4(1H,3H)-dione] was 205 to 211 °C. Under `CC(C)Cn1c(=O)n(C)c(=O)c2c(Sc3nccs3)c(C(=O)c3ccnc4ccccc34)sc21` [Example 48, 3-Methyl-1-(2-methylpropyl)-6-(4-quinolinylcarbonyl)-5-(1,3-thiazol-2-ylthio)-thieno[2,3-d]pyrimidine-2,4(1H,3H)-dione] stands 166.8 to 167.6 °C; under `CC(C)Cn1c(=O)n(C)c(=O)c2c(Sc3nccs3)c(C(O)c3ccnc4ccccc34)sc21` (centres unmarked) [Example 49, 6-[Hydroxy-(4-quinolinyl)-methyl]-3-methyl-1-(2-methylpropyl)-5-(1,3-thiazol-2-ylthio)-thieno[2,3-d]pyrimidine-2,4(1H,3H)-dione], 182.8 to 184 °C.

Regarding `CC(C)Cn1c(=O)n(C)c(=O)c2c(Sc3nnc[nH]3)c(Cc3csc4ccccc34)sc21` [Example 50, 6-(1-Benzothien3-ylmethyl)-3-methyl-1-(2-methylpropyl)-5-(4H-1,2,4-triazol-3-ylthio)-thieno[2,3-d]pyrimidine-2,4(1H,3H)-dione], the melting point lay in the range of 237 to 238.2 °C.

`CC(C)Cn1c(=O)n(C)c(=O)c2c(Sc3cccs3)c(Cn3cnc4ccccc43)sc21` [Example 51] gave a melting point of 198 °C. The value for `CC(C)Cn1c(=O)n(C)c(=O)c2c(Sc3cccs3)c(CN3C(=O)c4ccccc4C3=O)sc21` [Example 54, 6-[(1,3-Dihydro-1,3-dioxo-2H-isoindol-2-yl)methyl]-3-methyl-1-(2-methylpropyl)-5-(2-thienylthio)-thieno[2,3-d]pyrimidine-2,4(1H,3H)-dione] was 163 °C.

The values are drawn from patent publication US20040014634A1, “Thieno[2,3-d]pyrimidinediones and their use as pharmaceuticals” (priority 2000, published 2004).
